Results published in publication PMC9964390, “Design, Synthesis and Phenotypic Profiling of Simplified Gedatolisib Analogues” (Pharmaceuticals, 2023).
Values after ≈ are worked out from the molar mass of the structure shown. Like-named read-outs stand apart in the source and are kept apart here.

Columns and labels:
[1] = PBMC viability assay (72 h MTT); assay type: cell-based, human; design: Emax at 72 h: dose or concentration left out as unconfirmed; conditions: human; for viability at 72 h, 0.3 µM: 0.3 µM (printed 0.3M); for viability at 72 h, 3 µM: 3 µM (printed 3M)
Description: Donor blood was collected and EDTA (ethylenediamine tetraacetic acid) was added to the sterile laminar flow in a 1:20 ratio. In a 15 mL falcon tube, 4.5 mL of Ficoll gradient was added, and then 9 mL of blood was added over the gradient in a 1:2 ratio. The tubes were centrifuged for 40 min at a speed of 750× g with an acceleration of 2 and a brake of 0. The ring of mononuclear cells formed was collected and added to a new tube.
Tubes with PBMCs were centrifuged in an incomplete RPMI medium for 10 min at 580× g with an acceleration of 8 and a brake of 9. The supernatant was discarded, and the cells were resuspended in 1 mL of RPMI medium supplemented with 20% […]. PBMCs were added to 96-well plates at a concentration of 1 × 10^5 cells per well. […]
After incubation, each well received 20 µL of MTT (5 mg/mL), followed by incubation for 4 h in the CO2 oven and centrifugation for 12 min at 1200× g. The supernatant from each well was taken, and 100 µL of isopropyl alcohol was added to solubilize the formazan crystals. The absorbance of the plates was measured at 570 nm in the Flex Station equipment.

MOLT-4 cell line = test: Muse Annexin V and Dead Cell Kit (phosphatidylserine externalization, membrane integrity); assay type: cell-based, human
Description: (§1) For quantitative analysis of live, early and late apoptosis, and cell death on both the CCRF-CEM and MOLT-4 cell lines, treated with gedatolisib and compound 5f (LASSBio-2252), the Muse® Annexin V and Dead Cell Kit was used. Compounds were studied using three concentrations.
(§2) The Annexin V and Dead Cell Kit (catalog n^o. MCH100105, Luminex) contains Annexin V, a phospholipid marker phosphatidylserine, and the molecule 7-AAD, a DNA marker for cells with a ruptured membrane. […] After incubation for 20 min at room temperature, the samples were read on the cytometer. The data with the histograms generated contain information on the percentage of viable cells, in early apoptosis, late apoptosis and dead cells. Samples from three independent experiments were performed in duplicate, and then statistical analysis was performed using the Prism6 statistical program.

CCRF-CEM cell line = test: as above; assay type: cell-based, human; conditions: for reduction of cell viability / total apoptosis: CCRF-CEM, at its CC50 value
Description: as §1, §2

CCRF-CEM = test: Muse Count & Viability Kit (flow cytometry); conditions: for CC50 / Emax: Homo sapiens
Description: (§6) Cell viability, cell death pattern, cell cycle and detection of PI3K activation were evaluated, and each analysis was performed using specific protocols of the Guava Muse Cell Analyzer.
(§7) In total, 20 µL of the cell solution was added to 380 µL of the reagent in 1 mL Eppendorf tubes and incubated for 5 min at room temperature in the dark. Samples from three independent experiments carried out in duplicate were read on the cytometer, followed by statistical analysis of the histograms on Prism6 to determine the CC50.

PC-3 = test: MTT cell viability assay; assay type: cell-based; conditions: Homo sapiens, PC-3, 72 h MTT; for CC50: 95% confidence interval in brackets; for Emax: read-out: Emax (maximum effect at maximum concentration used)
Description: (§3) For the evaluation of cellular cytotoxicity in cancer cell lines, the compounds were tested at concentrations ranging from 0.00003 μM to 150 μM. Immortalized cancer cells were selected: PC-3 (PTEN-mutated prostate adenocarcinoma), MCF-7 (PI3KCA-mutated breast carcinoma), K562 (P53-mutated chronic myeloid leukemia), CCRF-CEM (acute lymphoblastic leukemia with mutation in PTEN) and MOLT-4 (acute lymphoblastic leukemia with mutation in PI3KR1/PTEN). Peripheral blood mononuclear cells (PBMCs) were used to determine the cytotoxic selectivity index (SI). All immortalized cells were cultured in RPMI 1640 medium with 10% (v/v) FBS, streptomycin + penicillin, at 37 °C in a humidified incubator containing 5% CO2.
(§4) Cell viability was assessed by the MTT assay. The lines selected for this study were plated according to their respective densities, which ranged from 3 × 10^4 to 4 × 10^4 cells per well. Subsequently, they were treated with test compounds at different concentrations (0.00003 μM to 150 μM), gedatolisib and GSK-1059615.
(§5) After incubation, the plates are centrifuged at 440× g for 10 min. Then, 110 μL of the supernatant was withdrawn and each well received 10μL of the MTT solution. The plate was again incubated in an oven at 37 °C and 5% CO2 for 3 to 4 h. At the end of the incubation time, 100 μL of SDS-HCL detergent was added to solubilize the formazan crystals. The plate was shaken on an automatic overnight shaker and then read at a wavelength of 595 nm on the Molecular Devices Spectramax M5 plate reader.

MCF7 = test: MTT cell viability assay; assay type: cell-based; conditions: Homo sapiens, MCF7, 72 h MTT; for CC50: 95% confidence interval in brackets; for Emax: read-out: Emax (maximum effect at maximum concentration used)
Description: as §3, §4, §5

K562 = test: MTT cell viability assay; assay type: cell-based; conditions: Homo sapiens, K562, 72 h MTT; for Emax: read-out: Emax (maximum effect at maximum concentration used)
Description: as §3, §4, §5

MOLT-4 = test: Muse Count & Viability Kit (flow cytometry); conditions: for CC50 / Emax: Homo sapiens; for loss of potency in Muse Count & Viability Kit 72 h versus 72 h MTT: MOLT-4
Description: as §6, §7

[2] = pH-dependent aqueous solubility (UV spectrophotometry); assay type: physicochemical; conditions: aqueous buffer, thermodynamic from solid, 37 °C
Description: A stock solution of the target compound was prepared by dissolving 1 mg in methanol, and the wavelength of greatest absorption of each compound was obtained by scanning between wavelengths from 200 nm to 500 nm. Six dilutions were prepared from the stock solution and the absorbance reading in the UV spectrophotometer (SpectraMax M5, Molecular Devices, USA). The calibration curve with linear regression was created with the values obtained, and the solubility test was measured by correlating the concentration with the absorbance obtained by ultraviolet. Each compound was added in excess at phosphate buffer solution pH 5.8 and 7.4 to obtain a supersaturated solution that was kept under stirring for 4 h at 37 °C and then was filtered through a 0.45 µm filter for reading at the corresponding wavelengths. The solubility was determined through the equation of the straight line obtained by the linear regression of the calibration curve of the compounds [24, 25].

[3] = PBMC, read-out: % cell viability
[4] = Homo sapiens, CCRF-CEM 48 h, read-out: % of cells, Viable
[5] = peripheral blood mononuclear cells (PBMCs), PBMC, read-out: % cell viability

| SMILES | reduction of cell viability (CCRF-CEM cell line) | total apoptosis (CCRF-CEM cell line) | viability at 50 µM (CCRF-CEM cell line; [4]) | loss of potency in Muse Count & Viability Kit 72 h versus 72 h MTT (CCRF-CEM) | CC50 (CCRF-CEM; 48 h) | Emax (CCRF-CEM; 48 h) | CC50 (CCRF-CEM; 72 h) | Emax (CCRF-CEM; 72 h) | CC50 (PC-3) | Emax (PC-3) | CC50 (MCF7) | Emax (MCF7) | Emax (K562) | CC50 (MOLT-4; MOLT-4, 48 h) | Emax (MOLT-4; MOLT-4, 48 h) | CC50 (MOLT-4; MOLT-4, 72 h) | Emax (MOLT-4; MOLT-4, 72 h) | loss of potency in Muse Count & Viability Kit 72 h versus 72 h MTT (MOLT-4) | further results |
| --- | --- | --- | --- | --- | --- | --- | --- | --- | --- | --- | --- | --- | --- | --- | --- | --- | --- | --- | --- |
| c1ccc(N2CCN(c3nc(N4CCCNCC4)nc(N4CCOCC4)n3)CC2)cc1 [5f, 4-(4-(1,4-Diazepan-1-yl)-6-(4-phenylpiperazin-1-yl)-1,3,5-triazin-2-yl)morpholine] | about 50% | about 50% | 47% | ≤ 10 fold | 49 µM | 95% | 53.1 µM | 96% | 62.1 µM | 84% | 37 µM | 91% | 84% | 51 µM | 90% | 60.8 µM | 92% | ≤ 10 fold | Emax at 72 h [1]: 26%; viability at 72 h, 0.03 µM ([1]; PBMC, 0.03 µM (printed 0.03M), read-out: % cell viability): 92%; viability at 72 h, 0.3 µM [1, 3]: 88%; viability at 72 h, 3 µM [1, 3]: 91%; viability at 72 h, 30 µM ([1]; PBMC, 30 µM (printed 30M), read-out: % cell viability): 75%; viability at 72 h, 100 µM ([1]; PBMC, 100 µM (printed 100M), read-out: % cell viability): 73%; viability at 6 µM (MOLT-4 cell line; Homo sapiens, MOLT-4 48 h, 6 μM, read-out: % de células, Viable): 86%; viability at 60 µM (MOLT-4 cell line; Homo sapiens, MOLT-4 48 h, 60 μM, read-out: % de células, Viable): 20%; reduction of the number of viable cells (MOLT-4 cell line; MOLT-4, tested at 10-fold concentration): 80%; reduction of the number of viable cells (MOLT-4 cell line; MOLT-4, tested at its CC50 value): 14%; viability at 5 µM (CCRF-CEM cell line; Homo sapiens, CCRF-CEM 48 h, 5 μM, read-out: % of cells, Viable): 87%; CC50 (K562; 95% confidence interval in brackets): 23.4 µM; solubility at 4 h ([2]; phosphate buffer pH 5.8 (duodenum), read-out: Solubility pH 5.8): 39.3 µM (≈ 16.7 µg/mL); solubility at 4 h ([2]; phosphate buffer pH 7.4 (plasma), read-out: Solubility pH 7.4): 42.4 µM (≈ 18 µg/mL) |
| CN(C)C1CCN(C(=O)c2ccc(NC(=O)Nc3ccc(-c4nc(N5CCOCC5)nc(N5CCOCC5)n4)cc3)cc2)CC1 [Gedatolisib, gedatolisib] | about 50% | about 50% | 7% | 100 fold | 5.88 µM | 94% | 6.15 µM | 94% | 0.54 µM | 80% | 0.07 µM | 87% | 64% | 1.65 µM | 82% | 1.15 µM | 86% | 100 fold | viability at 72 h, 0.0003 µM ([1]; peripheral blood mononuclear cells (PBMCs), PBMC, 0.0003 µM (printed 0.0003M), read-out: % cell viability): 89%; viability at 72 h, 0.003 µM ([1]; peripheral blood mononuclear cells (PBMCs), PBMC, 0.003 µM (printed 0.003M), read-out: % cell viability): 85%; viability at 72 h, 0.3 µM [1, 5]: 80%; viability at 72 h, 3 µM [1, 5]: 85%; viability at 72 h, 50 µM ([1]; peripheral blood mononuclear cells (PBMCs), PBMC, 50 µM (printed 50M), read-out: % cell viability): 67%; viability at 0.15 µM (MOLT-4 cell line; Homo sapiens, MOLT-4 48 h, 0.15 μM, read-out: % de células, Viable): 10%; viability at 1.5 µM (MOLT-4 cell line; Homo sapiens, MOLT-4 48 h, 1.5 μM, read-out: % de células, Viable): 11%; viability at 30 µM (MOLT-4 cell line; Homo sapiens, MOLT-4 48 h, 30 μM, read-out: % de células, Viable): 4%; reduction of cell viability (MOLT-4 cell line; MOLT-4, concentration 10 times lower than its CC50): 90%; viability at 0.6 µM (CCRF-CEM cell line; Homo sapiens, CCRF-CEM 48 h, 0.6 μM, read-out: % of cells, Viable): 68%; viability at 6 µM (CCRF-CEM cell line; Homo sapiens, CCRF-CEM 48 h, 6 μM, read-out: % of cells, Viable): 55%; CC50 (K562; K562, 72 h): > 24 µM; CC50 (K562; K562, 72 h, 95% confidence interval in brackets): 24.1 µM |
